# From patent publication EP0550008A2, “Use of N-acyl derivatives of aminoalcohols with polycarboxylic acids for the manufacture of a medicament for the treatment of pathologies relating to mast cells” (LIFEGROUP S.p.A., priority 1991, dated 1993)
# Assays:
# mast cells degranulation [1] = assay: in vivo mast cell degranulation induced by substance P in the auricular pinna, systemic subcutaneous pretreatment; design: species or system Sprague Dawley rats
# Procedure: • 2 weeks old Sprague […] rats, provided by Charles River from Calco, were locally treated by intradermal injection on the auricular pinna with the compounds in question at the dose of 0.5mg/kg, in a buffered aqueous solution at physiological pH. After 10 minutes a local administration, still by intradermal route, followed, of the substance P (10^-4 M), able to induce a mast cells degranulation response. After 30' from the subtance P administration, the animals were sacrificed and the relative tissue samples (pinna) were taken, for an analysis of the morphological aspect of the mast cells residing in the connectival tissues after fixation and coloration with toluidine blue. The inhibition degree in mast cells degranulation in the tissues of the animals treated with the compounds under question, and compared with those of animals treated only with the physiological degranulation factor (substance P) was considered as a parameter for the biological activity. […] The pharmacologic activity of the compounds under question was also verified under conditions of a systemic subcutaneous administration. In this case the animals were firstly treated with 20 mg/kg of the substances under question and after 30 minutes were exposed to the degranulation stimulus with the substance P (10^-6 M) in the auricular pinna. Then we proceeded as previously described. In Tab.2 the obtained results are reported on an average of 500-800 cells. Tab.2
# [2] = system: Peritoneal mast cells of rat; assay: in vitro degranulation of cultured peritoneal mast cells stimulated with substance P; format: cell-based
# Procedure: Peritoneal mast cells of rat were taken according to the standard methodology described by Lagunoff (1975, Tech. Biochem. Biophys. Morphol. , 2, pp. 289-305).
# The cells were then cultured in MEM which 10% fetal calf serum was added to and then incubated in a Haereus^R incubator for 30 minutes.
# The derivatives under question at the concentration of 10⁻⁵ M were added to the incubation medium .
# At the end of the incubation the physiological degranulation stimulus represented by the substance P (10⁻⁴) was added.
# The cells were then centrifugated in order to remove the supernatant formed by the incubation medium and placed onto the slide after coloration with toluidine blue, for the analysis of the morphological aspect at the optical microcope.
# Also under these conditions the parameter to be considered was the percentage of degranulated cells after stimulation with the Substance P.
# [3] = solubility in organic solvents; format: physicochemical; conditions: organic solvent or mixture
# solubility in water = format: physicochemical
# mast cells degranulation [4] = assay: in vivo mast cell degranulation induced by substance P in the auricular pinna, intradermal (local) pretreatment; design: species or system Sprague Pawley rats; conditions: compound 0.5 mg/kg intradermal on the auricular pinna, substance P (10⁻⁴ M) intradermal after 10 minutes, sacrifice 30' later
# Procedure: • 2 weeks old Sprague Pawley rats, provided by Charles River from Calco, were locally treated by intradermal injection on the auricular pinna with the compounds in question at the dose of 0.5mg/kg, in a buffered aqueous solution at physiological pH. After 10 minutes a local administration, still by intradermal route, followed, of the substance P (10⁻⁴ M), able to induce a mast cells degranulation response. After 30' from the subtance P administration, the animals were sacrificed and the relative tissue samples (pinna) were taken, for an analysis of the morphological aspect of the mast cells residing in the connectival tissues after fixation and coloration with toluidine blue. The inhibition degree in mast cells degranulation in the tissues of the animals treated with the compounds under question, and compared with those of animals treated only with the physiological degranulation factor (substance P) was considered as a parameter for the biological activity.
# [5] = compound 20 mg/kg subcutaneous, substance P (10⁻⁶ M) in the auricular pinna after 30 minutes, average of 500-800 cells
# [6] = compound 10⁻⁵ M in the incubation medium, 30 minutes, then substance P (10⁻⁴)
SMILES,% of cells undergoing degranulation (mast cells degranulation [1]; [5]) [%],solubility ([3]; in DMSO) [µg/mL],solubility (solubility in water) [µg/mL],other results
"O=C(CCC(=O)NCCO)NCCO [(4), N,N'-bis-(2-hydroxyethyl)-succinamide]",32,> 10000,,"% of cells undergoing degranulation [2, 6]: 35%"
"O=C(NCCO)C(=O)NCCO [(5), N,N'-bis(2-hydroxyethyl)-oxalyldiamide]",45.5,> 10000,> 10000,
"O=C(NCCO)c1ccccc1C(=O)NCCO [(13), N,N' -bis (2-hydroxyethyl)-phthaloyldiamide]",35.5,,> 10000,solubility ([3]; in ethanol): > 10000 µg/mL
"O=C(/C=C/C=C/C(=O)NCCO)NCCO [(14), N,N'-bis (2-hydroxyethyl)-trans,trans-muconoyldiamide]",40.2,> 10000,> 10000,
"CSCC[C@H](NC(=O)[C@H](CC(C)C)NC(=O)CNC(=O)[C@H](Cc1ccccc1)NC(=O)[C@H](Cc1ccccc1)NC(=O)[C@H](CCC(N)=O)NC(=O)[C@H](CCC(N)=O)NC(=O)[C@@H]1CCCN1C(=O)[C@H](CCCCN)NC(=O)[C@@H]1CCCN1C(=O)[C@@H](N)CCCNC(=N)N)C(N)=O [substance P, reference compound]",,,,"% of cells undergoing degranulation (mast cells degranulation [1]; substance P (10⁻⁶ M) in the auricular pinna alone, no pretreatment): 92%; % of cells undergoing degranulation ([2]; substance P (10⁻⁴) alone): 96%"
"O=C(CC(=O)NCCO)NCCO [(7), N,N' -(2-hydroxyethyl)-malondiamide]",35,> 5000,> 10000,solubility ([3]; in ethanol): > 10000 µg/mL
"O=C(CCCCCCCC(=O)NCCO)NCCO [(3), N,N'-bis-(2-hydroxyethyl)-nonandiamide]",30,,,"% of cells undergoing degranulation [2, 6]: 30%; solubility ([3]; solvent not stated): > 10000 µg/mL; % of cells undergoing degranulation (mast cells degranulation [4]): 30%"
"O=C(CC(O)C(=O)NCCO)NCCO (racemic) [(8), N,N'-bis (2-hydroxyethyl)-(+/-)2-hydroxysuccinimide]",31,> 10000,> 10000,
"O=C(NCCO)c1cc(=O)c2c(OCC(O)COc3cccc4oc(C(=O)NCCO)cc(=O)c34)cccc2o1 [(11), N,N'-bis (2-hydroxyethyl)-cromoglycholyldiamide]",28.6,> 10000,> 10000,
"O=C(/C=C/CCCCCCCCC(=O)NCCO)NCCO [(6), N,N'-bis (2-hydroxyethyl)trans-2-dodecendiamide]",33.6,> 10000,,solubility ([3]; in ethanol): > 10000 µg/mL; solubility (solubility in water; at 95 °C): > 10000 µg/mL
"O=C(CCCC(=O)NCCO)NCCO [(15), N,N'-bis-(2-hydroxyethyl)-glutaroyldiamide]",30,> 10000,> 10000,
"O=C(/C=C/C(=O)NCCO)NCCO [(1), N-fumaroylethanolamide]",28,< 20000,< 20000,"% of cells undergoing degranulation [2, 6]: 35%; solubility ([3]; in hot ethanol): < 20000 µg/mL; % of cells undergoing degranulation (mast cells degranulation [4]): 40%"
"O=C(/C=C/C(=O)N(CCO)CCO)N(CCO)CCO [(2), N,N,N',N'-tetra (2-hydroxyethyl)-fumaroyl-diamide]",32,> 10000,> 10000,"% of cells undergoing degranulation [2, 6]: 30%; solubility ([3]; in hot ethanol): > 10000 µg/mL"
"NC(CC(=O)NCCO)C(=O)NCCO (stereo not shown) [(12), N,N'-bis (2-hydroxyethyl)-aspartyldiamide]",30,> 10000,> 10000,
"CC(O)CNC(=O)/C=C/C(=O)NCC(C)O (stereo not shown) [(10), N,N'-bis (2-hydroxypropyl)-fumaroyldiamide]",38,> 10000,> 10000,
"O=C(NCCO)[C@H](O)[C@@H](O)C(=O)NCCO [(9), (R,R)-(+) 2,3-dihydroxy-N,N'-bis (2-hydroxyethyl)-succinamide]",32,> 10000,> 10000,
